Assay results reported in patent US20040109845A1, “Method for inhibiting articular cartilage matrix calcification” (priority 2001, published 2004).

Tests used:
[1] = system: S100A11 mRNA in human articular chondrocytes; assay: S100A11 mRNA expression by RT-PCR; assay type: cell-based; conditions: 10 ng/ml, 24 hours, relative to L30
Protocol: Normal human knee articular chondrocytes were treated in culture with IL-1 or IGF-I (10 ng/ml) for 24 hours and ascertained for S100A11 mRNA expression by RT-PCR, relative to the loading control L30, a ribosomal housekeeping gene. Results for induction of S100 A11 representative of 3 separate experiments with different donors.

[2] = system: tTGase and Factor XIIIa expression in knee articular cartilage and medial meniscus; assay: Immunohistochemistry of cartilage organ culture; assay type: cell-based, human; conditions: organ culture 48 hours
Protocol: Articular cartilage and medial menisci from normal donors were studied in cartilage organ culture in media supplemented with 1% FCS and 1% L-glutamine, as described in the Methods, following 48 hours of treatment with TGFβ 10 ng/ml, IL-1β (1 ng/ml), or medium alone.
Immunohistochemistry was performed as previously described in detail (30,33,34). In brief, immunohistochemical sections (5 microns) were pretreated with bovine testicular hyaluronidase (0.5 mg/ml at 37° C. for 30 min) and incubated in 5% normal goat or rabbit serum for 20 min prior to avidin/biotin peroxidase staining by the ABC method. Hematoxilin was used as the counterstain. Biotinylated anti-rabbit or anti-goat antibodies served as secondary antibodies. Levamisole was added to block endogenous alkaline phosphatase (AP). Negative controls were nonimmune rabbit or goat serum as a substitute for primary antibody.
Meniscal cells were taken from tissue slices removed from the central regions of the medial and lateral menisci. Where indicated, meniscal organ culture was performed by incubating these slices for b 48 hours in DMEM high glucose containing 1% FCS and 1% L-glutamine (and articular cartilage organ culture performed in the same manner, where indicated). Otherwise, we minced meniscal tissue with a scalpel, incubated in DMEM high glucose containing 2 mg/ml clostridial collagenase, 5% FCS, 1% L-glutamine, 100 units/ml Penicillin and 50 μg/ml Streptomycin (Omega Scientific, Tarzana, Calif.), and incubated on a gyratory shaker at 37° C. until the tissue fragments were digested. Residual multicellular aggregates were removed by sedimentation (1,000×g), and cells were washed three times in DMEM containing 5% FCS.

[3] = system: meniscal cells and TC28 cells; assay: Matrix calcification, quantitative Alizarin Red S binding assay; assay type: cell-based, human; conditions: polyHEME culture up to 10 days; cytokines 10 ng/ml or TGase transfection
Protocol: TC28 cells and meniscal cells were transfected with empty plasmid or a TGase expression construct, and then transferred to polyHEME and cultured for up to 10 days, as described above. For comparison purposes, control untransfected cells were treated with IL-1 or TGFβ(10 ng/ml each) for up to 10 days. To measure matrix calcification, media and cells were removed from the PolyHEME-coated dishes, and 1 ml Alizarin Red S solution (0.5% v/v Alizarin Red S, pH 5.0) added to washed plates at 23° C. for 10 min. After further washing, 100 mM Cetylpyridium Chloride was added for 10 min to release the remaining calcium-bound Alizarin Red S. The solution was collected and read at OD570, with 1.0 OD570=1 unit of Alizarin Red released per μg of DNA per culture dish. n=6 each, studied in triplicate, and using 6 different knee meniscal donors. *p<0.05.
To promote matrix calcification in short-term cultures, we modified a nonadherent chondrocyte culture system (37), and assessed cells that formed calcifying nodules over 10 days in culture. In brief, meniscal and TC28 cells, at 24 hours after the transfection, were washed and removed from the dish using 0.2 mg/ml EDTA, pH 8.0, then transferred to 6 well plates that had been previously coated with a 10% (wt./v) in 95% ethanol solution of Poly (2-Hydroxyethyl methacrylate) (polyHEME). […]
To assay calcification of the pericellular matrix of meniscal cells and TC28 cells, we used a quantitative Alizarin Red S binding assay (38). […] The solution was collected and read at OD570 on a SpectraMAX microplate reader (Molecular Devices, Sunnyvale, Calif.), with 1 OD570=1 unit of Alizarin Red released per μg of DNA per culture dish. We extracted matrix crystals from plates under each condition using a papain-hypochlorite method (39), and the crystals were embedded in Spurr epoxy resin, sectioned, and viewed on a Philips EM340 transmission electron micrograph and analyzed by electron diffraction (40,41).

Factor XIIIa expression ([2]; knee articular cartilage): up-regulated
tTGase expression ([2]; knee articular cartilage): up-regulated tTGase expression
Substance: IL-1β: Human recombinant IL-1β purchased from R&D Systems
S100A11 mRNA expression [1]: induce mRNA expression of S100A11
tTGase and Factor XIIIa immunostaining ([2]; knee articular cartilage and meniscal cartilage slices, TGFβ 10 ng/ml, IL-1β 1 ng/ml): induced increased tTGase and Factor XIIIa immunostaining
Matrix calcification (bound Alizarin Red S) [3]: significantly increased matrix calcification
